# Measured values: PMC12406685, “Thiazole substitution of a labile amide bond—a new option toward antiplasmodial pantothenamide-mimics” (Antimicrobial Agents and Chemotherapy, 2025)
# System: intraerythrocytic P. falciparum
# Test: In vitro parasite proliferation assay (SYBR Safe-based fluorescence)
# Format: cell-based, Plasmodium falciparum (3D7 strain)
# Details: 1 µM pantothenate
# Method: Culturing of intraerythrocytic stage P. falciparum parasites (3D7 strain) was carried out using a method adapted from Trager and Jensen ([97]) and Allen and Kirk ([98]). Parasites were maintained within human, male or female, erythrocytes (typically Group O+, Rh+, 4% hematocrit) in RPMI-1640 medium (Thermo Fisher Scientific, catalogue number 72400120) supplemented with 25 mM HEPES, 11 mM glucose, 200 μM hypoxanthine, 24 μg/mL gentamicin and 6 g/L Albumax II on a horizontally rotating shaking incubator (New Brunswick Innova 42/[…]) at 37°C under an atmosphere of 96% nitrogen, 3% carbon dioxide, and 1% oxygen. To evaluate the effect of each compound on the in vitro proliferation of P. falciparum parasites, a SYBR Safe-based fluorescence assay was used as previously described ([32]). All pantothenamide-mimics tested were initially dissolved to a concentration of 200 mM in DMSO. The final DMSO concentration in the assay never exceeded 0.1% (vol/vol). Assays were performed using the same medium used to culture the parasites. […] Assays were set up with synchronous ring-stage P. falciparum-infected erythrocytes in 96-well microtiter plates. Parasites were synchronized using 5% (wt/vol) sorbitol ([100]). […] P. falciparum-infected erythrocytes incubated in the presence of 0.5 μM chloroquine were used as a non-proliferation control, and those incubated in the absence of compounds and chloroquine served as a 100% parasite proliferation control. To minimize “edge effects” ([101], [102]), the outermost rows and columns of the microtiter plates were not used in the proliferation assays and were filled with 200 μL of medium. The plates were then incubated at 37°C for 96 h under a low-oxygen atmosphere. At the end of the incubation, plates were frozen at -80°C to lyse the cells. […] The fluorescence in the non-proliferation control wells was subtracted from the fluorescence readings in the other wells prior to further analysis. Parasite proliferation, calculated as a percentage of the fluorescence measured in the test wells relative to the fluorescence measured in the 100% parasite proliferation control wells, was then plotted against the logarithm of the compound concentration. […] IC50 values (determined from the sigmoidal curves) were averaged from three independent experiments.
row,SMILES,"Antiplasmodial IC50 range, in words"
1,CC(C)(CO)[C@@H](O)C(=O)NCc1nc(CCc2ccccc2)cs1 [Compound 1e],sub-micromolar range
2,CC(C)(CO)[C@@H](O)C(=O)NCc1csc(-c2ccccc2)n1 [Compound 2e],sub-micromolar range
3,CCCCc1csc(CNC(=O)[C@H](O)C(C)(C)CO)n1 [Compound 1a],sub-micromolar range

# Same assay, conditions: Plasmodium falciparum; intraerythrocytic stage, RPMI-1640 containing 1 µM pantothenate, 96 h; mean ± SEM of three experiments; read-out: IC50 (µM) against Pf at 1 µM Pan
row,SMILES,IC50 [µM]
1,CC(C)(CO)[C@@H](O)C(=O)NCc1nc(CCc2ccccc2)cs1 [Compound 1e],0.77 ± 0.09
2,CC(C)(CO)[C@@H](O)C(=O)NCc1csc(-c2ccccc2)n1 [Compound 2e],0.51 ± 0.02
3,CCCCCc1csc(CNC(=O)[C@H](O)C(C)(C)CO)n1 [Compound 1c],2.3 ± 0.2
4,CC(C)(CO)[C@@H](O)C(=O)NCc1csc(Cc2ccccc2)n1 [Compound 2c],2.4 ± 0.2
5,CCCCc1csc(CNC(=O)[C@H](O)C(C)(C)CO)n1 [Compound 1a],0.77 ± 0.1
6,CC(C)(CO)[C@@H](O)C(=O)NCc1cnc(-c2ccccc2)s1 [Compound 3f],8 ± 0.7

# Same assay, conditions: Plasmodium falciparum; intraerythrocytic stage, RPMI-1640 containing 100 µM pantothenate, 96 h; read-out: IC50 (µM) against Pf at 100 µM Pan
row,SMILES,IC50 [µM]
1,CC(C)(CO)[C@@H](O)C(=O)NCc1nc(CCc2ccccc2)cs1 [Compound 1e],> 12.5
2,CC(C)(CO)[C@@H](O)C(=O)NCc1csc(-c2ccccc2)n1 [Compound 2e],> 6.25
3,CCCCCc1csc(CNC(=O)[C@H](O)C(C)(C)CO)n1 [Compound 1c],> 25
4,CC(C)(CO)[C@@H](O)C(=O)NCc1csc(Cc2ccccc2)n1 [Compound 2c],> 25
5,CCCCc1csc(CNC(=O)[C@H](O)C(C)(C)CO)n1 [Compound 1a],> 6.25
6,CC(C)(CO)[C@@H](O)C(=O)NCc1cnc(-c2ccccc2)s1 [Compound 3f],> 50

# System: human foreskin fibroblasts (HFF)
# Test: In vitro HFF proliferation assay (Incucyte confluency)
# Format: cell-based
# Details: 200 µM compound, DMEM with 16.8 µM pantothenate, 96 h; mean ± range/2 of two experiments
# Method: (§1) HFF cells were maintained in vitro in DMEM supplemented with 10% (vol/vol) newborn calf serum, 50 units/mL penicillin, 50 µg/mL streptomycin, 10 µg/mL gentamicin, 0.2 mM L-glutamine, and 0.25 µg/mL amphotericin B, as previously described ([99]). HepG2 cells were maintained in RPMI-1640 medium (Thermo Fisher Scientific, catalogue number 72400120) supplemented with 10% (vol/vol) fetal bovine serum, 50 units/mL penicillin, and 50 µg/mL streptomycin.
# In vitro HFF proliferation assays were performed as previously described by Howieson et al. ([32]), with modifications. Confluent HFF cells (in a 75 cm^2 flask) were harvested by treatment with 1 × trypsin–EDTA (0.25% [wt/vol] trypsin +0.2 g/L EDTA) and diluted in 21 mL of DMEM supplemented with 10% [vol/vol] newborn calf serum ([32]). Assays were set up in 96-well microtiter plates in a similar way to that described for the antiplasmodial activity assay. Cycloheximide (10 µM) was used as a non-proliferation control, and 0.1% (vol/vol) DMSO served as a 100% proliferation control. The plates were incubated at 37°C in a CO2 incubator for 96 h, and the Incucyte Live-Cell Analysis System (Essen BioScience) was used to capture cellular changes and assess cell growth in each well over time. Each well was scanned to capture bright field images, and confluency was assessed at the end of the 96 h incubation, which was then used to evaluate the effect of each compound on the proliferation of HFF cells by comparing it to the 100% proliferation control. The bottom of the curve was constrained to 0 when fitting for HFF proliferation assays using GraphPad Prism.
row,SMILES,Proliferation (%) of HFF with 200 µM Cpd and 16.8 µM Pan [%]
1,CC(C)(CO)[C@@H](O)C(=O)NCc1nc(CCc2ccccc2)cs1 [Compound 1e],101 ± 2
2,CC(C)(CO)[C@@H](O)C(=O)NCc1csc(-c2ccccc2)n1 [Compound 2e],100 ± 1
3,CCCCCc1csc(CNC(=O)[C@H](O)C(C)(C)CO)n1 [Compound 1c],97 ± 4
4,CC(C)(CO)[C@@H](O)C(=O)NCc1csc(Cc2ccccc2)n1 [Compound 2c],101 ± 2
5,CCCCc1csc(CNC(=O)[C@H](O)C(C)(C)CO)n1 [Compound 1a],100 ± 1
6,CC(C)(CO)[C@@H](O)C(=O)NCc1cnc(-c2ccccc2)s1 [Compound 3f],100 ± 1

# System: human hepatoblastoma cells (HepG2)
# Test: In vitro HepG2 proliferation assay (Incucyte confluency)
# Format: cell-based
# Details: 200 µM compound, RPMI-1640 with 1 µM pantothenate, 72 h; mean ± range/2 of two experiments
# Method: as §1
# In vitro HepG2 proliferation assays were performed similarly to the HFF proliferation assays with modifications. Confluent HepG2 cells were harvested by treatment with 1 × trypsin–EDTA and diluted in RPMI-1640 supplemented with 10% (vol/vol) fetal bovine serum. Assays were set up in 96-well microtiter plates with 20,000 cells per well. Puromycin (10 µM) was used as a non-proliferation control, and 0.1% (vol/vol) DMSO served as a 100% proliferation control. The plates were incubated at 37°C in a CO2 incubator for 72 h, and the Incucyte Live-Cell Analysis System (Essen BioScience) was used to capture cellular changes and assess cell growth in each well over time as described above for the HFF proliferation assays. The bottom of the curve was constrained to 0 when fitting for HepG2 proliferation assays using GraphPad Prism.
row,SMILES,Proliferation (%) of HepG2 with 200 µM Cpd and 1 µM Pan [%]
1,CC(C)(CO)[C@@H](O)C(=O)NCc1nc(CCc2ccccc2)cs1 [Compound 1e],55 ± 1
2,CC(C)(CO)[C@@H](O)C(=O)NCc1csc(-c2ccccc2)n1 [Compound 2e],91 ± 4
3,CCCCCc1csc(CNC(=O)[C@H](O)C(C)(C)CO)n1 [Compound 1c],62 ± 7
4,CC(C)(CO)[C@@H](O)C(=O)NCc1csc(Cc2ccccc2)n1 [Compound 2c],93 ± 2
5,CCCCc1csc(CNC(=O)[C@H](O)C(C)(C)CO)n1 [Compound 1a],71 ± 11
6,CC(C)(CO)[C@@H](O)C(=O)NCc1cnc(-c2ccccc2)s1 [Compound 3f],89 ± 2

# Same assay, conditions: 200 µM, RPMI-1640 with 1 µM pantothenate
row,SMILES,"Effect on HepG2 cells, in words"
1,CC(C)(CO)[C@@H](O)C(=O)NCc1nc(CCc2ccccc2)cs1 [Compound 1e],some low-level toxicity
2,CC(C)(CO)[C@@H](O)C(=O)NCc1csc(-c2ccccc2)n1 [Compound 2e],completely inactive
3,CCCCCc1csc(CNC(=O)[C@H](O)C(C)(C)CO)n1 [Compound 1c],some low-level toxicity
4,CC(C)(CO)[C@@H](O)C(=O)NCc1csc(Cc2ccccc2)n1 [Compound 2c],completely inactive
5,CCCCc1csc(CNC(=O)[C@H](O)C(C)(C)CO)n1 [Compound 1a],some low-level toxicity
6,CC(C)(CO)[C@@H](O)C(=O)NCc1cnc(-c2ccccc2)s1 [Compound 3f],completely inactive

# Same assay, conditions: Homo sapiens, HepG2; 200 µM
row,SMILES,inhibition at 200 µM [%]
1,CC(C)(CO)[C@@H](O)C(=O)NCc1nc(CCc2ccccc2)cs1 [Compound 1e],~50
